From BindingDB's records for doi:10.1021/acs.jmedchem.1c00779 (Hong Kong Polytechnic University, 2021)

Tests used:
[1] = Inhibition of BCRP (unknown origin) transfected in HEK293/R2 cells assessed as reversal of topotecan resistance after 5 days by MTS/PMS assay
[2] = Inhibition of MRP1 (unknown origin) expressed in human 2008/MRP1 cells assessed as reversal of doxorubicin resistance after 5 days by MTS/PMS assay
[3] = Inhibition of P-gp (unknown origin) expressed in human LCC6MDR cells assessed as reversal of paclitaxel resistance after 5 days by MTS/PMS assay
[4] = Inhibition of BCRP (unknown origin) expressed in MCF7/MX100 cells assessed as reversal of topotecan resistance after 5 days by MTS/PMS assay
[5] = Inhibition of MRP1 (unknown origin) expressed in human 2008/MRP1 cells assessed as reversal of mitoxantrone resistance after 5 days by MTS/PMS assay
[6] = Inhibition of BCRP (unknown origin) expressed in human HEK293/R2 cells assessed as reversal of mitoxantrone resistance after 5 days by MTS/PMS assay
[7] = Inhibition of P-gp (unknown origin) expressed in human LCC6MDR cells assessed as reversal of mitoxantrone resistance after 5 days by MTS/PMS assay

COC(=O)c1cccc(COc2c(-c3ccc(OCCOCCn4cc(-c5cccc(-c6cn(CCOCCOc7ccc(-c8oc9ccccc9c(=O)c8OCc8cccc(C(=O)OC)c8)cc7)nn6)c5)nn4)cc3)oc3ccccc3c2=O)c1
EC50 [1]: 0.0025 µM

C#CCCCOc1ccc(-c2cc(=O)c3ccccc3o2)cc1
EC50 [1]: > 1 µM

C#CCCCOc1ccc2c(=O)cc(-c3ccccc3)oc2c1
EC50 [1]: > 1 µM

C#CCCCOc1ccc(-c2cc(=O)c3ccc(F)cc3o2)cc1
EC50 [1]: 0.325 µM

C#CCCCOc1ccc(-c2cc(=O)c3c(OCc4ccccc4)cc(OCOC)cc3o2)cc1
EC50 [1]: 0.201 µM

C#CCCCOc1ccc(-c2cc(=O)c3cc(C)ccc3o2)cc1
EC50 [1]: > 1 µM

C#CCCCCOc1ccc(/C=C/C(=O)c2ccccc2O)cc1
EC50 [1]: > 1 µM

C#CCCCCOc1ccc(/C=C/C(=O)c2cc(CC)ccc2O)cc1
EC50 [1]: > 1 µM

C#CCCCCOc1ccc(/C=C/C(=O)c2cc(C)ccc2O)cc1
EC50 [1]: > 1 µM

C#CCCCCOc1ccc(/C=C/C(=O)c2ccc(C)cc2O)cc1
EC50 [1]: > 1 µM

C#CCCCCOc1ccc(/C=C/C(=O)c2ccc(F)cc2O)cc1
EC50 [1]: > 1 µM

C#CCCCOc1ccc(-c2nc3ccccc3c(=O)[nH]2)cc1
EC50 [1]: > 1 µM

C#CCCCCOc1ccc2c(=O)cc(-c3ccccc3)oc2c1
EC50 [1]: > 1 µM

C#CCOCCOc1ccc2c(=O)cc(-c3ccccc3)oc2c1
EC50 [1]: > 1 µM

C#CCN(CCOc1ccc2c(=O)cc(-c3ccccc3)oc2c1)Cc1ccccc1
EC50 [1]: > 1 µM

C#CCN(CC#C)CC#C
EC50 [1]: > 1 µM

C#CCCN1C(=O)c2ccccc2C1=O
EC50 [1]: > 1 µM

C#CCN(Cc1ccccc1)Cc1ccccc1
EC50 [1]: > 1 µM

C#CCNc1ccccc1
EC50 [1]: > 1 µM

C#CCCCCOc1ccc(-c2oc3ccccc3c(=O)c2OCc2cccc(C(=O)OC)c2)cc1
EC50 [2]: > 1 µM | EC50 [1]: 0.044 µM | EC50 [3]: 0.821 µM | EC50 [4]: 0.034 µM

C#CCCCCOc1ccc(C=O)cc1
EC50 [1]: > 1 µM

C#CCCCCOc1ccc(-c2oc3ccccc3c(=O)c2OCc2cccc(OC)c2)cc1
EC50 [1]: 0.261 µM

C#CCCCCOc1ccc(-c2cc(=O)c3cc(F)ccc3o2)cc1
EC50 [1]: 0.24 µM

C#CCCCOc1ccc(-c2cc(=O)c3cc(F)ccc3o2)cc1
EC50 [1]: 0.417 µM

O=c1cc(-c2ccccc2)oc2cc(OCCNCc3ccccc3)ccc12
EC50 [1]: > 1 µM

COC(=O)c1cccc(COc2c(-c3ccc(OCCOCCN=[N+]=[N-])cc3)oc3ccccc3c2=O)c1
EC50 [2]: > 1 µM | EC50 [3]: > 1 µM | EC50 [4]: 0.05 µM

COC(=O)c1cccc(COc2c(-c3ccc(OCCOCCOCCN=[N+]=[N-])cc3)oc3ccccc3c2=O)c1
EC50 [2]: > 1 µM | EC50 [3]: 0.298 µM | EC50 [4]: 0.017 µM

COC(=O)c1cccc(COc2c(-c3ccc(OCCCCc4cn(CCOCCO)nn4)cc3)oc3ccccc3c2=O)c1
EC50 [2]: > 1 µM | EC50 [1]: 0.01 µM | EC50 [3]: 0.606 µM | EC50 [4]: 0.027 µM

COC(=O)c1cccc(COc2c(-c3ccc(OCCCCc4cn(Cc5ccccc5)nn4)cc3)oc3ccccc3c2=O)c1
EC50 [2]: > 1 µM | EC50 [1]: 0.007 µM | EC50 [3]: 0.67 µM | EC50 [5]: 0.886 µM | EC50 [6]: 0.013 µM | EC50 [7]: 0.673 µM | EC50 [4]: 0.006 µM

COC(=O)c1cccc(COc2c(-c3ccc(OCCOCCn4cc(CN(C)Cc5ccccc5)nn4)cc3)oc3ccccc3c2=O)c1
EC50 [2]: > 1 µM | EC50 [1]: 0.015 µM | EC50 [3]: > 1 µM | EC50 [5]: 0.681 µM | EC50 [6]: 0.017 µM | EC50 [7]: 0.644 µM | EC50 [4]: 0.0035 µM

COC(=O)c1cccc(COc2c(-c3ccc(OCCOCCn4cc(CCN5C(=O)c6ccccc6C5=O)nn4)cc3)oc3ccccc3c2=O)c1
EC50 [2]: > 1 µM | EC50 [1]: 0.046 µM | EC50 [3]: > 1 µM | EC50 [4]: 0.097 µM

COC(=O)c1cccc(COc2c(-c3ccc(OCCOCCn4cc(CN(Cc5ccccc5)Cc5ccccc5)nn4)cc3)oc3ccccc3c2=O)c1
EC50 [2]: > 1 µM | EC50 [1]: 0.032 µM | EC50 [3]: > 1 µM | EC50 [4]: 0.03 µM

COC(=O)c1cccc(COc2c(-c3ccc(OCCOCCn4cc(CNc5ccccc5)nn4)cc3)oc3ccccc3c2=O)c1
EC50 [2]: > 1 µM | EC50 [1]: 0.026 µM | EC50 [3]: > 1 µM | EC50 [4]: 0.044 µM

COC(=O)c1cccc(COc2c(-c3ccc(OCCOCCOCCn4cc(CN(C)Cc5ccccc5)nn4)cc3)oc3ccccc3c2=O)c1
EC50 [2]: > 1 µM | EC50 [1]: 0.016 µM | EC50 [3]: 0.83 µM | EC50 [4]: 0.028 µM

COC(=O)c1cccc(COc2c(-c3ccc(OCCOCCOCCn4cc(CCN5C(=O)c6ccccc6C5=O)nn4)cc3)oc3ccccc3c2=O)c1
EC50 [2]: > 1 µM | EC50 [1]: 0.16 µM | EC50 [3]: > 1 µM

COC(=O)c1cccc(COc2c(-c3ccc(OCCOCCOCCn4cc(CCCCOc5ccc(C=O)cc5)nn4)cc3)oc3ccccc3c2=O)c1
EC50 [2]: 0.865 µM | EC50 [1]: 0.019 µM | EC50 [3]: > 1 µM | EC50 [4]: 0.038 µM

COC(=O)c1cccc(COc2c(-c3ccc(OCCOCCOCCn4cc(CN(CCO)Cc5ccccc5)nn4)cc3)oc3ccccc3c2=O)c1
EC50 [2]: > 1 µM | EC50 [1]: 0.0014 µM | EC50 [3]: 0.309 µM | EC50 [5]: 0.592 µM | EC50 [6]: 0.165 µM | EC50 [7]: 0.817 µM | EC50 [4]: 0.0016 µM

[N-]=[N+]=NCCOCCOc1ccc(-c2cc(=O)c3ccccc3o2)cc1
EC50 [1]: 0.365 µM

[N-]=[N+]=NCCOCCOCCOc1ccc(-c2cc(=O)c3ccccc3o2)cc1
EC50 [1]: 0.363 µM

Cc1ccc2oc(-c3ccc(OCCOCCOCCN=[N+]=[N-])cc3)cc(=O)c2c1
EC50 [1]: 0.75 µM

[N-]=[N+]=NCCOCCOCCOc1ccc(-c2oc3ccccc3c(=O)c2OCc2ccccc2)cc1
EC50 [1]: 0.052 µM

[N-]=[N+]=NCCOCCOc1ccc(-c2cc(=O)c3cc(F)ccc3o2)cc1
EC50 [1]: 0.84 µM

[N-]=[N+]=NCCOCCOc1ccc(-c2oc3ccccc3c(=O)c2OCc2ccccc2)cc1
EC50 [1]: 0.045 µM

[N-]=[N+]=NCCOCCOc1ccc2c(=O)cc(-c3ccccc3)oc2c1
EC50 [1]: 0.223 µM

[N-]=[N+]=NCCOCCOCCOc1ccc2c(=O)cc(-c3ccccc3)oc2c1
EC50 [1]: 0.177 µM

[N-]=[N+]=NCCOc1ccc2c(=O)cc(-c3ccccc3)oc2c1
EC50 [1]: 0.213 µM

[N-]=[N+]=NCCOCCO
EC50 [1]: > 1 µM

COc1cccc(COc2c(-c3ccc(OCCOCCN=[N+]=[N-])cc3)oc3ccccc3c2=O)c1
EC50 [1]: 0.076 µM

[N-]=[N+]=NCCOCCOc1cccc(-c2oc3ccccc3c(=O)c2OCc2ccccc2)c1
EC50 [1]: 0.169 µM

C#CCN(C)Cc1ccccc1 [N-benzyl-N-methylprop-2-yn-1-amine]
EC50 [1]: > 1 µM
